Laboratory results: patent US11384078B2, “5,6-fused-bicyclic compounds and compositions for the treatment of parasitic diseases” (NOVARTIS AG, priority 2017, dated 2022)
Like-named read-outs stand apart in the source and are kept apart here.

Experiments:
Assay type in all cases: cell-based
[1] = system: L. donovani HU3 strain in mouse peritoneal macrophages; assay: Assay for inhibition of parasitemia of Leishmania donovani in mouse macrophages (SYBR Green nuclei count, high-content imaging); settings: Leishmania donovani, Peritoneal macrophage, L. donovani in mouse peritoneal macrophages; read-out: L. donovani in Mouse Macrophages EC50
Procedure, shortened: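 Parasite numbers were counted from SYBR Green-stained nuclei imaged by high-content microscopy after paraformaldehyde fixation and Triton permeabilization. Before this, compound was applied for 5 days at 37° C to BALB/c peritoneal macrophages (2×10^4/well) that had been exposed 24 h to 4×10^5 L. donovani HU3 amastigotes harvested from infected mouse spleens.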

[2] = system: Trypanosoma brucei brucei (Lister 427) strain; assay: Assay for growth inhibition against Trypanosoma brucei brucei (Cell TiterGlo ATP luminescence); settings: T. brucei brucei (Lister 427), read-out: T. Brucei (HAT) EC50
Procedure, shortened: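 Growth read-out is cellular ATP by CellTiter-Glo luminescence, measured 30 min after reagent addition, following 2-day incubation at 37 °C in CO2. Parasites (10,000/mL, HMI-9 plus 10% FBS and 10% serum plus) faced 10 threefold dilutions in duplicate; IC50 taken as 50% growth inhibition versus untreated.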

[3] = system: Leishmania donovani axenic amastigote; assay: In vitro assay for growth inhibition of Leishmania donovani axenic amastigote (Cell TiterGlo luminescence); settings: Leishmania donovani, L. donovani axenic amastigotes in vitro; read-out: L. donovani amastigotes EC50
Procedure, shortened: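 Compound-treated wells received 9600 axenic amastigotes in RPMI 1640-based medium at pH 5.5 (37 °C, 5% CO2). Growth measured as ATP luminescence (CellTiter-Glo) after 2-day incubation; DMSO and reference compounds served as controls.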

[4] = system: Trypanosoma cruzi amastigotes cultured in 3T3 fibroblast cells; assay: Assay for growth inhibition of kinetoplastid parasite Trypanosoma cruzi (beta-galactosidase Tulahuen strain, CPRG readout); settings: Trypanosoma cruzi, Fibroblast, T. cruzi amastigotes in 3T3 fibroblast cells; read-out: Buckner infectious T. cruzi EC50
Procedure, shortened: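 3T3 fibroblasts (1,000 cells/well) plated overnight, treated with compound in DMSO, then infected with 10,000 Lac-Z-expressing Tulahuen trypomastigotes. After 6 days, 0.6 mM CPRG with 0.6% NP-40 added for 2 h at room temperature; absorbance gives relative intracellular amastigote numbers. Benznidazole and nifurtimox serve as positive controls.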

SMILES	EC50 [1] [nM]	EC50 ([2]; Trypanosoma brucei) [nM]	EC50 [3] [nM]	EC50 [4] [nM]	EC50 [2] [nM]
O=C(Nc1ccnc(-n2cc3cc(N4CC(F)(F)C4)cnc3n2)c1)N1CCC1 [Compound 280, N-(2-(5-(3,3-difluoroazetidin-1-yl)-2H-pyrazolo[3,4-b]pyridin-2-yl)pyridin-4-yl)azetidine-1-carboxamide]	28	40	33	48	
O=C(Nc1ccnc(-n2cc3cc(-c4ccccn4)cnc3n2)c1)N1CC(F)(F)C1 [Compound 281, 3,3-difluoro-N-(2-(5-(pyridin-2-yl)-2H-pyrazolo[3,4-b]pyridin-2-yl)pyridin-4-yl)azetidine-1-carboxamide]	26	14	9	15	
O=C(Nc1ccnc(-n2cc3cc(N4CC5(CC5)C4)cnc3n2)c1)N1CCC1 [Compound 282, N-[2-(5-{5-azaspiro[2.3]hexan-5-yl}-2H-pyrazolo[3,4-b]pyridin-2-yl)pyridin-4-yl}azetidine-1-carboxamide]	70	27	34	40	
O=C(Nc1ccc(Cl)c(-n2cc3cc(-c4ccccn4)cnc3n2)c1)N1CC(F)C1 [Compound 283, N-{4-chloro-3-[5-(pyridin-2-yl)-2H-pyrazolo[3,4-b]pyridin-2-yl]phenyl}-3-fluoroazetidine-1-carboxamide]	19	8	7	5	
O=C(Nc1ccc(Cl)c(-n2cc3cc(N4CC(F)(F)C4)cnc3n2)c1)N1CCC1 [Compound 284, N-{4-chloro-3-[5-(3,3-difluoroazetidin-1-yl)-2H-pyrazolo[3,4-b]pyridin-2-yl]phenyl}azetidine-1-carboxamide]	56	15	27	15	
O=C(Nc1ccc(Cl)c(-n2cc3cc(-c4ccccn4)cnc3n2)c1)N1CCC1 [Compound 285, N-{4-chloro-3-[5-(pyridin-2-yl)-2H-pyrazolo[3,4-b]pyridin-2-yl]phenyl}azetidine-1-carboxamide]	9	4	4	3	
O=C(Nc1ccc(Cl)c(-n2cc3cc(N4CC5(CC5)C4)cnc3n2)c1)N1CCC1 [Compound 286, N-[3-(5-{5-azaspiro[2.3]hexan-5-yl}-2H-pyrazolo[3,4-b]pyridin-2-yl)-4-chlorophenyl]azetidine-1-carboxamide]	47	30	25	14	
O=C(Nc1cccc(-n2cc3cc(N4CC5(CC5)C4)cnc3n2)c1)N1CCC1 [Compound 287, N-[3-(5-{5-azaspiro[2.3]hexan-5-yl}-2H-pyrazolo[3,4-b]pyridin-2-yl)phenyl]azetidine-1-carboxamide]	30	10	21	21	
O=C(Nc1ccc(F)c(-n2cc3cc(N4CC(F)(F)C4)cnc3n2)c1)N1CCC1 [Compound 290, N-{3-[5-(3,3-difluoroazetidin-1-yl)-2H-pyrazolo[3,4-b]pyridin-2-yl]-4-fluorophenyl)azetidine-1-carboxamide]	4		7	4	4
O=C(Nc1ccc(F)c(-n2cc3cc(N4CC(F)C4)cnc3n2)c1)N1CC(F)C1 [Compound 291, 3-fluoro-N-{4-fluoro-3-[5-(3-fluoroazetidin-1-yl)-2H-pyrazolo[3,4-b]pyridin-2-yl]phenyl}azetidine-1-carboxamide]	5		10	5	5
O=C(Nc1ccc(F)c(-n2cc3cc(N4CC(F)C4)cnc3n2)c1)N1CCC1 [Compound 292, N-{4-fluoro-3-[5-(3-fluoroazetidin-1-yl)-2H-pyrazolo[3,4-b]pyridin-2-yl]phenyl}azetidine-1-carboxamide]	8		5	3	5
O=C(Nc1ccc(F)c(-n2cc3cc(C4CCNCC4)cnc3n2)c1)N1CC(F)C1 [Compound 293, 3-fluoro-N-{4-fluoro-3-[5-(piperidin-4-yl)-2H-pyrazolo[3,4-b]pyridin-2-yl]phenyl}azetidine-1-carboxamide]	17600	167	6820	1210	
O=C(Nc1ccc(F)c(-n2cc3cc(-c4cnccn4)cnc3n2)c1)N1CC(F)C1 [Compound 294, 3-fluoro-N-{4-fluoro-3-[5-(pyrazin-2-yl)-2H-pyrazolo[3,4-b]pyridin-2-yl]phenyl}azetidine-1-carboxamide]	4	5	4	5	
O=C(Nc1ccc(F)c(-n2cc3cc(-c4c[nH]cn4)cnc3n2)c1)N1CC(F)C1 [Compound 295, 3-fluoro-N-{4-fluoro-3-[5-(1H-imidazol-4-yl)-2H-pyrazolo[3,4-b]pyridin-2-yl]phenyl}azetidine-1-carboxamide]	1970	38	292	4290	
O=C(Nc1ccc(F)c(-n2cc3cc(C4CCN(Cc5ccccc5)CC4)cnc3n2)c1)N1CC(F)C1 [Compound 296, N-{3-[5-(1-benzylpiperidin-4-yl)-2H-pyrazolo[3,4-b]pyridin-2-yl]-4-fluorophenyl}-3-fluoroazetidine-1-carboxamide]	2	5	216	5	
O=C(Nc1ccc(F)c(-n2cc3cc(N4CC(F)(F)C4)cnc3n2)c1)N1CC(F)C1 [Compound 298, N-{3-[5-(3,3-difluoroazetidin-1-yl)-2H-pyrazolo[3,4-b]pyridin-2-yl]-4-fluorophenyl}-3-fluoroazetidine-1-carboxamide]	4	4	14	4	
O=C(Nc1ccc(F)c(-n2cc3cc(N4CC(F)(F)C4)cnc3n2)c1)N1CC(F)(F)C1 [Compound 299, N-{3-[5-(3,3-difluoroazetidin-1-yl)-2H-pyrazolo[3,4-b]pyridin-2-yl]-4-fluorophenyl}-3,3-difluoroazetidine-1-carboxamide]	7	5	29	14	
O=C(Nc1ccc(F)c(-n2cc3cc(N4CC(F)(F)C4)cnc3n2)c1)N1CC[C@@H](F)C1 [Compound 300, (3R)-N-{3-[5-(3,3-difluoroazetidin-1-yl)-2H-pyrazolo[3,4-b]pyridin-2-yl]-4-fluorophenyl}-3-fluoropyrrolidine-1-carboxamide]	6	3	22	4	
Cn1cnc(-c2cnc3nn(-c4cc(NC(=O)N5CC(F)C5)ccc4F)cc3c2)c1 [Compound 301, 3-fluoro-N-{4-fluoro-3-[5-(1-methyl-1H-imidazol-4-yl)-2H-pyrazolo[3,4-b]pyridin-2-yl]phenyl}azetidine-1-carboxamide]	97	8	73	472	
O=C(Nc1ccc(F)c(-n2cc3cc(N4CC(F)C4)cnc3n2)c1)N1CC[C@@H](F)C1 [Compound 302, (3R)-3-fluoro-N-{4-fluoro-3-[5-(3-fluoroazetidin-1-yl)-2H-pyrazolo[3,4-b]pyridin-2-yl]phenyl}pyrrolidine-1-carboxamide]	15	5	118	2	
